Results reported in ChEMBL document CHEMBL5724558, “Image-based profiling of drug vulnerabilities in CRC organoids” (2024).
Values joined by “and” are separate entries in the source; they are usually repeats but may differ in a detail not shown here. Equal entries are not always repeated.

Experiments:
Format in all cases: functional, Homo sapiens
Set-up in all cases: dose or concentration left out as unconfirmed
[1] = system: Colon cancer organoid; experiment: Image-based profiling of donated chemical probes and chemogenomic kinase set in O06 CRC organoid. Image analysis is performed on the sum area metric, and the data were normalized to the DMSO control. After imaging the organoid viability is measured using the OneGloEX Luciferase Assay System. The normalized viability data and sum area are reported.
[2] = system: Colon cancer organoid; experiment: Image-based profiling of donated chemical probes and chemogenomic kinase set in O21 CRC organoid. Image analysis is performed on the sum area metric, and the data were normalized to the DMSO control. After imaging the organoid viability is measured using the OneGloEX Luciferase Assay System. The normalized viability data and sum area are reported.
[3] = system: Colon cancer organoid; experiment: Image-based profiling of donated chemical probes and chemogenomic kinase set in O09 CRC organoid. Image analysis is performed on the sum area metric, and the data were normalized to the DMSO control. After imaging the organoid viability is measured using the OneGloEX Luciferase Assay System. The normalized viability data and sum area are reported.

SMILES | Cell Viability ([1]; Replication number 1) | Cell Viability ([1]; Replication number 2) | Cell Viability ([2]; Replication number 1) | Cell Viability ([2]; Replication number 2) | Cell Viability ([3]; Replication number 1) | Cell Viability ([3]; Replication number 2)
CO[C@@H](C)c1c(Nc2ccc([C@@H](N(C)C(=O)C3CCS(=O)(=O)CC3)C(F)(F)F)cc2)cnc2cc(Cl)nn12 [NVS-MALT1-C] | 48.3396% and 100.567% | 78.0608% and 112.446% | 68.6015% and 94.398% | 97.4598% and 109.109% | 63.1352% and 96.7863% | 75.29% and 89.0167%
O=C(NCc1ncc(C(F)(F)F)cc1Cl)c1ccc2c(c1)C1(CCS(=O)(=O)CC1)[C@@H](C1CC1)N2S(=O)(=O)c1ccc(F)cc1 [BAY-786] | 93.4369% and 85.4801% | 92.4233% and 87.6518% | 89.1117% and 93.1436% | 89.1705% and 87.7551% | 144.169% and 104.407% | 144.169% and 145.747%
Cc1nc(-c2cn3c(n2)-c2ccc(-c4cnn(C(C)(C)C(N)=O)c4)cc2OCC3)n(C(C)C)n1 [TASELISIB] | 24.4584% and 46.9606% | 18.3941% and 28.1748% | 74.483% and 67.4564% | 68.3353% and 63.3321% | 40.2908% and 23.1884% | 43.7188% and 27.2651%
O=C(O)CNC(=O)c1c(O)c2ccccc2n(Cc2ccccc2)c1=O | 94.9232% and 53.396% | 101.3% and 76.2347% | 116.47% and 93.4683% | 109.318% and 89.1408% | 105.314% and 91.1128% | 142.9% and 106.905%
COc1cc2c(cc1-c1c(C)noc1C)ncc1[nH]c(=O)n([C@H](C)c3ccccn3)c12 | 37.8038% and 58.2282% | 43.3272% and 66.9145% | 88.6726% and 67.015% | 110.558% and 99.8807% | 51.0073% and 39.6445% | 53.9016% and 48.1786%
O=C(Nc1nc2cccc(-c3ccc(CN4CCS(=O)(=O)CC4)cc3)n2n1)C1CC1 [FILGOTINIB] | 93.5364% and 106.162% | 112.473% and 105.09% | 108.054% and 94.216% | 115.207% and 111.119% | 112.727% and 81.0348% | 92.6922% and 97.9922%
CN(C)C(=O)/C(C#N)=C/c1ccc(-c2nc3cnc4[nH]ccc4c3n2C2CCCCC2)o1 | 174.281% and 154.216% | 123.709% and 122.376% | 101.13% and 96.3421% | 107.991% and 97.4755% | 104.012% and 103.69% | 101.367% and 106.659%
c1ccc(C2CCN(c3cnc4c(N5CCOCC5)nccn34)CC2)cc1 | 145.966% and 120.992% | 117.4% and 104.103% | 115.301% and 98.0422% | 102.772% and 73.1066% | 180.042% and 107.897% | 162.986% and 102.452%
CC(C)(C)OC(=O)N1CCCC1CNC1CCC(c2cc(F)ccc2F)(S(=O)(=O)c2ccc(Cl)cc2)CC1 (stereo unspecified) [GSI-NC] | 66.8797% and 82.4356% | 76.3317% and 68.2262% | 89.6265% and 62.8719% | 87.5663% and 80.102% | 125.581% and 90.7884% | 108.329% and 85.8708%
Cc1ncsc1-c1ccc(CNC(=O)[C@@H]2C[C@@H](O)CN2C(=O)[C@@H](NC(=O)CCCCNC(=O)c2ccc(-c3ccc(N4CCN(C)CC4)c(NC(=O)c4c[nH]c(=O)cc4C(F)(F)F)c3)cc2)C(C)(C)C)cc1 | 127.591% and 97.9274% | 138.236% and 103.65% | 88.0354% and 100.906% | 93.0619% and 103.634% | 189.737% and 102.727% | 128.896% and 122.558%
Cc1cnc(-c2cc(Cl)ccc2F)cc1-n1c(=O)n(CC(N)=O)c2ccccc21 [Al11] | 119.898% and 115.628% | 113.033% and 103.316% | 94.0699% and 103.674% | 91.9117% and 97.8926% | 78.4595% and 96.5987% | 101.459% and 100.317%
CC[C@H](CO)Nc1nc(NCc2ccccc2)c2ncn(C(C)C)c2n1 [SELICICLIB] | 146.934% and 137.321% | 92.4206% and 95.8355% | 79.2225% and 95.8885% | 112.922% and 92.6952% | 133.303% and 96.4937% | 129.12% and 84.4947%
OCCn1cc(-c2cnc3nnn(Cc4ccc5ncccc5c4)c3n2)cn1 [PF-04217903] | 92.042% and 100.376% | 104.418% and 102.005% | 106.76% and 119.861% | 108.21% and 119.755% | 126.877% and 95.995% | 92.9183% and 79.3656%
Cc1nc(N2CC[C@H](O)C2)ncc1-c1cc(C(F)(F)F)cc2[nH]ncc12 | 99.241% and 111.944% | 84.0147% and 88.1256% | 102.375% and 86.1578% | 90.0065% and 80.6122% | 63.142% and 75.4977% | 55.6466% and 44.9799%
CC1=CC(C)=[N+]2C1=C(CCCCc1cn(CC(=O)N3CCc4nc(NC(=O)[C@H]5CCN(C#N)C5)sc4C3)nn1)c1c(C)cc(C)n1[B-]2(F)F | 105.892% and 120.972% | 115.912% and 117.492% | 110.953% and 108.585% | 96.9264% and 89.225% | 63.7608% and 86.8451% | 67.8399% and 91.9905%
CN1CCN(c2ccc(-c3cccc(CN4CCOCC4)c3)cc2NC(=O)c2c[nH]c(=O)cc2C(F)(F)F)CC1 | 183.315% and 145.933% | 137.387% and 99.6548% | 76.0385% and 85.8263% | 102.756% and 104.714% | 103.563% and 97.1406% | 155.063% and 99.7783%
Cc1c(C(=O)Nc2ccc(Oc3ccnc4[nH]cc(-c5ccccc5)c34)c(F)c2)c(=O)n(-c2ccc(F)cc2)n1C | 83.9357% and 96.3695% | 67.8056% and 89.2545% | 102.708% and 102.021% | 105.094% and 114.574% | 202.234% and 105.47% | 155.309% and 109.6%
CS(=O)(=O)N1CCN(Cc2cc3nc(-c4cccc5[nH]ncc45)nc(N4CCOCC4)c3s2)CC1 [PICTILISIB] | 32.227% and 73.4455% | 23.961% and 57.7892% | 58.3035% and 68.0139% | 64.7873% and 89.8165% | 49.7053% and 32.4139% | 55.1776% and 34.8237%
O=C(NC[C@H](O)CN1CCc2ccccc2C1)c1ccnc(NC2CCC2)c1 | 27.5023% and 69.1007% | 41.1138% and 71.2161% | 82.4125% and 78.1842% | 61.8775% and 72.494% | 64.9401% and 74.8841% | 97.6148% and 75.2613%
Cn1cc(Cl)c2c(Oc3c(F)cc(Nc4cc(Cl)nc(N)n4)cc3F)ccnc21 [BAY-4900] | 133.628% and 127.773% | 114.004% and 114.608% | 120.472% and 95.4893% | 100.602% and 97.8926% | 73.6043% and 111.604% | 79.5869% and 90.6027%
O=C(Nc1cnc(Oc2ccc(F)cc2)nc1)N1CCc2ncccc2[C@@H]1c1ccc(F)cc1 [BAY-899] | 95.5159% and 118.785% | 100.58% and 108.361% | 121.151% and 99.8545% | 98.3369% and 80.5574% | 90.6617% and 101.288% | 105.766% and 101.705%
